# Columns and labels:
# [1] = biological target: T1, A1 adenosine receptor (Mesocricetus auratus, UniProt A0A1U8BVR4); experiment: cAMP assay (SPA) in DDT1 cells, forskolin-induced cAMP; type: cell-based, hamster; conditions: normalized to full agonist CPA, 5 μM forskolin, 50 μM rolipram; for Emax: 10 min
# T1 construct: endogenous in cells; host or cells: DDT1 (DDT1 MF-2) hamster vas deferens smooth muscle cells
# T1 sequence (A0A1U8BVR4 1-326): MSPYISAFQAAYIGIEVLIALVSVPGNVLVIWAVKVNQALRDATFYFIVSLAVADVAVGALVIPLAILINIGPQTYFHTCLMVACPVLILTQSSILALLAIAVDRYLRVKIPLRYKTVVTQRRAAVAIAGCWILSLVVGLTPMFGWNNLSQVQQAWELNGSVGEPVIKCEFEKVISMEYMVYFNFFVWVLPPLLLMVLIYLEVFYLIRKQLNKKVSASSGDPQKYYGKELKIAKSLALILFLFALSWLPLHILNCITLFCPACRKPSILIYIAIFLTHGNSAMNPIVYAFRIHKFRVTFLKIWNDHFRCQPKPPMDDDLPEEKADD
# Protocol: A scintillation proximity assay (SPA) using rabbit antibodies directed at cAMP using an added tracer of adenosine 3′,5′-cyclic phosphoric acid 2′-O-succinyl-3-[^125I]iodotyrosine methyl ester and fluoromicrospheres containing anti-rabbit specific antibodies as described by Amersham Pharmacia Biotech (Biotrak cellular communication assays). Briefly, DDT1 cells were cultured in clear bottomed 96 well microtiter plates with opaque wells at concentrations between 10^4 to 10^6 cells per well in 40 μl of HBSS at 37° C. (5% CO2 and 95% humidity). The partial or full A1 agonists (5 μl) of this invention were incubated at various concentrations with the DDT1 cells in the presence of rolipram (50 μM), and 5 μM forskolin for 10 min at 37° C. The cells were immediately lysed by treatment 5 μl of 10% dodecyltrirnethylammonium bromide followed by shaking using rnicroplate shaker. After incubation of the plate for 5 minutes, an imnuunoreagent solution (150 μl containing equal volumes of tracer, antiserum, and SPA fluorospheres) was added to each well followed by sealing the plate. After 15-20 h at 23° C., the amount of bound [^125] cAM to the fluoromicrospheres was determined by counting in a microtitre plate scintillation counter for 2 minutes. Comparison of counts with standard curves generated for cAMP using a similar protocol afforded the cAMP present after cell lysis.
# [2] = biological target: T1, A1 adenosine receptor; experiment: [35S]GTPγS binding assay, A1-agonist stimulated; type: biochemical, hamster; conditions: agonist stimulated [35S]GTPγS binding, CPA = 100%
# Protocol: (§1) Attached cells were washed twice with HBSS (2×10 ml), scraped free of the plate with the aid of a rubber policeman in 5 ml of 50 mM Tris-HCI buffer pH 7.4 at 4° C. and the suspension homogenized for 10 s. The suspension was then centrifuged at 27,000×g for 10 min. The pellet was resuspended in homogenization buffer by vortexing and centrifuged as described above. The final pellet was resuspended in 1 vol of 50 mM Tris-HCI buffer pH 7.4 containing 5 mM MgCl2 for A1 AdoR assays. For the [^35S]GTPγS binding assay the final pellet was resuspended in 50 mM Tris-HCI pH 7.4 containing 5 mM MgCl2, 100 mM NaCl and 1 mM dithiothreitol. This membrane suspension was then placed in liquid nitrogen for 10 min, thawed and used for assays. The protein content was determined by the method of Bradford (1976) using bovine serum albumin as standard.
# A1-agonist stimulated [^35S]GTPγS binding was determined by a modification of the method described by Giersckik et al. (1991) and Lorenzen et al. (1993). […] Nonspecific binding was determined by the addition of 10 μM GTPγS. […] Previous reports have shown that agonist stimulated [^35S]GTPγS binding was dependent on the presence of GDP (Gierschik et al., 1991; Lorenzen et al., 1993; Traynor & Nahorski, 1995). […] In saturation experiments, 0.5 nM [^35S]GTPγS was incubated with 0.5-1000 nM GTPγS. At the end of the incubation, each suspension was filtered and the retained radioactivity determined as described above.
# [3] = biological target: T2, A1 receptor (Mesocricetus auratus, UniProt A0A1U8BVR4); experiment: Competitive binding assay, DDT1 cell membranes, [3H]CCPA; design: species or system hamster; conditions: [3H]CCPA 2 nM, DDT1 cell membranes; read-out: Ki-DDT1 cell membrane
# T2 construct: endogenous in cells; host or cells: DDT1 (DDT1 MF-2) hamster vas deferens smooth muscle cells
# T2 sequence (A0A1U8BVR4 1-326): T1 sequence (A0A1U8BVR4 1-326)
# Protocol: Cells were subcultured twice weekly by dispersion in Hank's Balanced Salt Solution (HBSS) without the divalent cations and containing 1 mM EDTA. The cells were then seeded in growth medium at a density of 1.2×10^5 cells per plate and experiments were performed 4 days later at approximately one day preconfluence.
# as §1, with “assays.” for “assays. The protein content was determined by the method of Bradford (1976) using bovine serum albumin as standard.”
# Competitive Binding Assay Pig striatum were prepared by homogenation in 50 mM Tris buffer (5× volume of tissue mass pH=7.4). After centrifilgation at 19,000 rpm for 25 minutes at 4° C., the supernatant was discarded, and the process was repeated twice. Compositions of this invention were assayed to determine their affinity for the A1 receptor in a pig striatum membrane prep or a DDT, membrane prep. Briefly, 0.2 mg of pig striatal membranes or DDT, cell membranes were treated with adenosine deaminase and 50 mM Tris buffer (pH=7.4) followed by mixing. To the pig membranes was added 2 μL of serially diluted DMSO stock solution of the compounds of this invention at concentrations ranging from 100 microM to 10 nM. The control received 2 microL of DMSO alone, then the antagonist [^3H] 8-cyclopentylxanthine (CPX) for pig striatum or the agonist [^3H] 2-chloro-6-cyclopentyladenosine (CCPA) for DDT, membranes in Tris buffer (50 mnM, pH of 7.4) was added to achieve a final concentration of 2 nM. After incubation at 23 C for 2 h, the solutions were filtered using a membrane harvester using multiple washing of the membranes (3×). The filter disks were counted in scintillation cocktail affording the amount of displacement of triated CPX or by the competitive binding compositions of this invention. In the case of the DDT1 cell membranes, some of the determinations of binding affinity (Ki) were made in the presence of Gpp(NH)p as noted in Table 1 (note: Gpp(NH)p shifts the receptor to a low affinity form). Greater than a 5 point curve was used to generate Ki's and the number of experiments is indicated in the column marked in Table 1 below.
SMILES,Emax [1] [%],Emax [2] [%],Ki [3] [µM],cAMP [1] [%],GTPγS [2] [%]
"CCOC(=O)C1C2C=CC(C2)C1NC(=O)OCC1OC(n2cnc3c(N[C@@H]4CCOC4)ncnc32)C(O)C1O (stereo partly drawn) [Compound 35, Ethyl 3-{[5-{6-[(3R)oxolan-3-yl)amiinolpurin-9-yl}(3S,2R,4R,5R)-3,4-dihydroxyoxolan-2-yl)methoxylcarbonylamino)(2S,3R)bicylo[2.2.]hept-5-ene2-carboxylate]",-4,52,1.01,,
"CCOC(=O)C1C2CCC(C2)C1NC(=O)OCC1OC(n2cnc3c(N[C@@H]4CCOC4)ncnc32)C(O)C1O (stereo partly drawn) [Compound 36, Ethyl 3-{[5-{6-[(3R)oxolan-3-yl)aminolpurin-9-yl}(3S,2R,4R,5R)-3,4-dihydroxyoxolan-2-yl)methoxylcarbonylamino}(2S,3R)bicylo[2.2.1]heptane-2-carboxylate]",10,41,1.52,,
O=C(NC1CCCC1OCc1ccccc1)OCC1OC(n2cnc3c(N[C@@H]4CCOC4)ncnc32)C(O)C1O (stereo partly drawn) [Compound 37],,,4.24,−6,30
"O=C(NC1CCC1)OCC1OC(n2cnc3c(N[C@@H]4CCOC4)ncnc32)C(O)C1O (stereo partly drawn) [Compound 39, [(5-{6[((3R)oxolan-3-yl)amino}purin-9-yl}(3S,2R,4R,5R)3,4-dihydroxyoxolan-2-yl)methoxy]-N-cyclobutylcarboxaniide]",45,67,0.447,,
"C=CCNC(=O)OC[C@H]1O[C@@H](n2cnc3c(N[C@@H]4CCOC4)ncnc32)[C@H](O)[C@@H]1O [Compound 41, [(5-{6[((3R)oxolan-3-yl)amino]purin-9-yl}(3S, 2R, 4R, 5R)-3,4-dihydroxyoxolan-2-yl)methoxy]-N-prop2-enylcarboxamide]",17,48,0.668,,
CCOC(=O)CCNC(=O)OCC1OC(n2cnc3c(N[C@@H]4CCOC4)ncnc32)C(O)C1O (stereo partly drawn) [Compound 42],16,47,3.15,,
COC(=O)CNC(=O)OCC1OC(n2cnc3c(N[C@@H]4CCOC4)ncnc32)C(O)C1O (stereo partly drawn) [Compound 43],28,53,1.7,,
OC1C(COC(=S)NC2CCCC2OCc2ccccc2)OC(n2cnc3c(N[C@@H]4CCOC4)ncnc32)C1O (stereo partly drawn) [Compound 56],,,1.24,43,52
"O=C(N[C@H]1CCC[C@@H]1O)OC[C@H]1O[C@@H](n2cnc3c(N[C@@H]4CCOC4)ncnc32)[C@H](O)[C@@H]1O [Compound 61, {(5-{6[((3R)oxolan-3-yl)amino]purin-9-yl}(3S,2R,4R,5R)-3,4dihydroxyoxolan-2-yl)methoxy]-N-((1S,2S)-2-hydroxycyclopentyl)carboxamide]",53,59,1.57,,
O=C(NC1CCCC1O)OCC1OC(n2cnc3c(N[C@@H]4CCOC4)ncnc32)C(O)C1O (stereo partly drawn) [Compound 62],23,42,2.19,,
"O=C(NC1CCCC1)OCC1OC(n2cnc3c(NC4CCOC4)nc(Cl)nc32)C(O)C1O [Compound 69, [(5-16-[((3R)oxolan-3-yl)amino]-2-chloropurin-9-yl}(3S,2R,4R,5R)-3,4-dihydroxyoxolan-2-yl)methoxy]-N-cyclopentylcarboxamide]",18,50,0.38,,

# — US20020037872A1, “N6 heterocyclic 5' modified adenosine derivatives” (CV Therapeutics, Inc., priority 1999, published 2002)
